Data as given in patent US20100015058A1, “RADIOLABELED BBN-RGD HETERODIMERS FOR CANCER TARGETING” (STANFORD UNIVERSITY, priority 2008, published 2010).

Assays:
integrin αvβ3 = target: T1, integrin αvβ3 (Homo sapiens, UniProt P05106+P06756); test: Competitive cell-binding assay with ^125I-c(RGDyK) on U87MG cells; conditions: FIG. 14A
T1 construct: Experiments were performed on U87MG human glioma cells expressing integrin αvβ3 as previously described; endogenous in cells; host or cells: U87MG human glioblastoma (glioma) cells

GRPR = target: T2, GRPR (Homo sapiens, UniProt P30550); test: Displacement cell-binding assay with ^125I-[Tyr4]BBN on PC-3 cells
T2 construct: Experiments were performed on GRPR-expressing PC-3 cells following our previously described procedure; endogenous in cells; host or cells: PC-3 human prostate carcinoma cells
Experimental: Experiments were performed with triplicate samples.
BBN as the radioligand. […] Experiments were performed twice with triplicate samples.

PC-3 tumor cells = test: Cell uptake assay on PC-3 tumor cells; assay type: cell-based, human; conditions: PC-3 cells, 37° C., within 30 min of incubation, plateau afterward
Experimental: In the cell uptake experiment, PC-3 cells were seeded into 12-well plates at a density of 5×10^5 cells per well for overnight incubation. Cells were rinsed 3 times with phosphate-buffered saline (PBS), followed by the addition of ^18F-FB-RGD, ^18F-FB-BBN, or ^18F-BBN-RGD to the cultured wells in triplicate (about 2 μCi/well). […] The cell lysate was collected in measurement tubes for counting. The cell uptake was normalized in terms of added radioactivity.
The cell uptake studies were performed as we have previously described with some modifications (Chen et al., Mol Imaging Biol. (2004) […]; Cai et al., (2006) J. Nuc. Med. 47: 1172-1180, incorporated herein by reference in their entireties). Briefly, PC-3 cells were seeded into 12-well plates at a density of 5×10^5 cells per well and incubated (about 18 kBq/well) with ^68Ga-labeled tracers at 37° C. for 15, 30, 60, and 120 min. Tumor cells were then washed three times with chilled PBS and harvested by trypsinization with 0.25% trypsin/0.02% EDTA (Invitrogen). The cell suspensions were collected and measured in a y counter (Packard, Meriden, Conn.). The cell uptake was expressed as the percent added dose (% AD) after decay correction. Experiments were performed twice with triplicate wells. For efflux studies, ^68Ga-labeled tracers (about 18 kBq/well) were first incubated with PC-3 cells in 12-well plates for 1 h at 37° C. to allow internalization. Then cells were washed twice with PBS, and incubated with cell culture medium for 15, 30, and 60 min. After washing three times with PBS, cells were harvested by trypsinization with 0.25% trypsin/0.02% EDTA. The cell suspensions were collected and measured in a γ counter. Experiments were performed twice with triplicate wells. Data are expressed as percent added dose after decay correction.

DU-145 tumor = assay type: in vivo, mice; conditions: integrin αvβ3-positive, low GRPR-expressing tumor
Experimental: The PC-3 and DU-145 human prostate carcinoma cell lines were purchased from American Type Culture Collection. PC-3 cells were grown in F-12K nutrient mixture (Kaighn's modification) (Invitrogen Corp.), and DU-145 cells were grown in minimum essential medium (Eagle) mixture supplemented with 10% (v/v) fetal bovine serum (Invitrogen) at 37° C. with 5% CO2. The PC-3 and DU-145 tumor models were generated by subcutaneous injection of 5×10^6 tumor cells into the front flank of male athymic nude mice (Harlan).
No attenuation or scatter correction was applied.

[1] = Small-animal PET of PC-3 tumor-bearing mice; conditions: mouse, in vivo, iv, total radioactivity
Experimental: (a) PET scans and image analysis were performed using a micro-PET R4 rodent model scanner (Siemens Medical Solutions) as reported by Li et al., J. Nucl. Med. (2007) 48: 1162-1171 and Wu et al., J Nucl. Med. (2005) 46: 1707-1718, both of which are incorporated herein by reference in their entireties). […] Five-minute static PET images were then acquired at 0.5, 1, and 2 h after injection. The images were reconstructed by a 2-dimensional ordered-subsets expectation maximum (OSEM) algorithm. No attenuation or scatter correction was applied. […] The 5-min static PET scans were then acquired at 1 hr after injection. For each small-animal PET scan, regions of interest (ROIs) were drawn over the tumor, normal tissue, and major organs by using vendor software (ASI Pro 5.2.4.0) on decay-corrected whole-body coronal images. The average radioactivity concentration (accumulation) within a tumor or an organ was obtained from mean pixel values within the multiple ROI volume, which were converted to counts/mL/min using a conversion factor. Assuming a tissue density of 1 g/mL, the ROIs were converted to counts/g/min, and then divided by the administered activity to obtain an imaging ROI-derived percentage injected dose per gram of tissue (% ID/g).
For dynamic PET, 30-min scans (1×30 s, 4×1 min, 1×1.5 min, 4×2 min, 5×3 min; total 15 frames) were started 1 min after injection, and two 5-min static PET images were also acquired at 1 h and 2 h after injection. […] For each small-animal PET scan, regions of interest (ROIs) were drawn over the tumor, normal tissue, and major organs using vendor software ASI Pro 5.2.4.0 on decay-corrected whole-body coronal images. The maximum radioactivity concentrations (accumulation) within a tumor or an organ were obtained from mean pixel values within the multiple ROI volume, and were converted to megabecquerels per milliliter per minute using a conversion factor. These values were then divided by the administered activity to obtain (assuming a tissue density of 1 g/ml) an image ROI-derived percent injected dose per gram (% ID/g).
The images were reconstructed using a 2-dimensional ordered-subsets expectation maximum algorithm without attenuation or scatter correction.
For each small-animal PET scan, regions of interest were drawn over each tumor, over normal tissue, and over major organs using vendor software (ASI Pro, version 5.2.4.0) on decay-corrected whole-body coronal images. The maximum radioactivity concentration (accumulation) within a tumor or an organ was obtained from the mean pixel values within the multiple-region-of-interest volume, which were converted to MBq/mL/min using a conversion factor. Assuming a tissue density of 1 g/mL, the regions of interest were converted to MBq/g/min and then divided by the administered activity to obtain an imaging region-of-interest-derived percentage injected dose (% ID)/g.

[2] = Small-animal PET of MDA-MB-435 tumor-bearing mice; conditions: female, athymic nude, mouse, in vivo, iv, total radioactivity; 30 min p.i., BBN tracer control study, FIG. 44B; read-out: MDA-MB-435 tumor uptake
[3] = Octanol/water partition coefficient; assay type: physicochemical; conditions: octanol / PBS pH 7.4, room temperature
Experimental: The mixture was vigorously vortexed for 1 min at room temperature. After centrifugation at 12,500 rpm for 5 min in an Eppendorf microcentrifuge (model 5415R; Brinkman), 200-μL aliquots of both layers were measured using a 7-counter (Packard Instruments). The experiment was performed in triplicate.

in vivo = test: in vivo; design: species or system mice; conditions: female, BALB/c, mouse, iv, 3.7 MBq, total radioactivity
Experimental: The 4T1 murine breast cancer cell line was purchased from American Type Culture Collection and grown in RMPI 1640 medium (Invitrogen Corp.) supplemented with 10% (v/v) fetal bovine serum (Invitrogen) at 37° C. with 5% CO2. The 4T1 tumor model was generated by subcutaneous injection of 5×10^6 tumor cells into the left front flank of female normal BALB/c mice (Harlan).
Five-minute static PET images were then acquired at 2 h after injection (n=3/group).

[4] = male, athymic nude, 5.5 MBq, Tumor uptake

With `CSCC[C@H](NC(=O)[C@H](CC(C)C)NC(=O)[C@H](Cc1c[nH]cn1)NC(=O)CNC(=O)[C@@H](NC(=O)[C@H](C)NC(=O)[C@H](Cc1c[nH]c2ccccc12)NC(=O)[C@H](CCC(N)=O)NC(=O)CCCCCN)C(C)C)C(N)=O` [Aca-BBN(7-14)] the “binding inhibition of ^125I-c(RGDyK)” value (integrin αvβ3) was “did not show significant binding inhibition”.

Work on `CSCC[C@H](NC(=O)[C@H](CC(C)C)NC(=O)[C@H](Cc1c[nH]cn1)NC(=O)CNC(=O)[C@@H](NC(=O)[C@H](C)NC(=O)[C@H](Cc1c[nH]c2ccccc12)NC(=O)[C@H](CCC(N)=O)NC(=O)CCCCCNC(=O)CC[C@H](NC(=O)COCCOCCOCCN)C(=O)NCCCC[C@@H]1NC(=O)[C@@H](Cc2ccc(O)cc2)NC(=O)[C@H](CC(=O)O)NC(=O)CNC(=O)[C@H](CCCNC(=N)N)NC1=O)C(C)C)C(N)=O` [PEG3-Glu-RGD-BBN] yielded an IC50 (GRPR; FIG. 34B, PEG3-Glu-RGD-BBN series, read-out: IC50, displacement of ^125I-[Tyr4]BBN from PC-3 cells) of 85.4 ± 1.95 nM.

In the case of `CSCC[C@H](NC(=O)[C@H](CC(C)C)NC(=O)[C@H](Cc1c[nH]cn1)NC(=O)CNC(=O)[C@@H](NC(=O)[C@H](C)NC(=O)[C@H](Cc1c[nH]c2ccccc12)NC(=O)[C@H](CCC(N)=O)NC(=O)CCCCCNC(=O)c1ccc(F)cc1)C(C)C)C(N)=O` [^18F-FB-BBN, reference compound], the cell uptake (PC-3 tumor cells) is reported as “about 7%”, the “detection of the DU-145 tumor by PET” value (DU-145 tumor) is reported as “unable to detect the DU-145 tumor” and the tissue uptake at 0.5 h ([1]; male, athymic nude, 3.7 MBq, PC-3 tumor uptake, PET ROI, 30 min after injection of 3.7 MBq) is reported as 0.63 ± 0.16 %ID/g. The tissue uptake at 1 h ([1]; male, athymic nude, 3.7 MBq, PC-3 tumor uptake, PET ROI, 60 min after injection of 3.7 MBq, no blocking) was 0.44 ± 0.1 %ID/g, the tissue uptake at 2 h ([1]; male, athymic nude, 3.7 MBq, PC-3 tumor uptake, PET ROI, 120 min after injection of 3.7 MBq) was 0.29 ± 0.08 %ID/g and the tissue uptake at 0.5 h [2] was 0.45 ± 0.11 %ID/g. It also gave a logP [3] of 1.49 ± 0.02.

With `N=C(N)NCCC[C@@H]1NC(=O)[C@H](CCCCNC(=S)Nc2ccc(C[C@H]3CN(CC(=O)O)CCN(CC(=O)O)CCN3CC(=O)O)cc2)NC(=O)[C@@H](Cc2ccc(O)cc2)NC(=O)[C@H](CC(=O)O)NC(=O)CNC1=O` [^64Cu-NOTA-RGD, metal not drawn, reference compound] the tissue uptake at 2 h (in vivo) was 0.65 ± 0.07 %ID/g, the tissue uptake at 0.5 h [1, 4] was 1.01 ± 0.29 %ID/g and the tissue uptake at 1 h [1, 4] was 0.83 ± 0.24 %ID/g. For the same compound, the tissue uptake at 4 h [1, 4] was 0.66 ± 0.21 %ID/g, the tissue uptake at 20 h [1, 4] was 0.55 ± 0.32 %ID/g and the tissue uptake at 1 h ([1]; 5.5 MBq, Blood uptake) was 0.43 ± 0.32 %ID/g. The tissue uptake at 4 h ([1]; 5.5 MBq, Blood uptake) was 0.3 ± 0.11 %ID/g, the tissue uptake at 20 h ([1]; 5.5 MBq, Blood uptake) was 0.34 ± 0.18 %ID/g and the tissue uptake at 0.5 h ([1]; 5.5 MBq, Kidney uptake) was 3.37 ± 0.89 %ID/g. It also gave a tissue uptake at 1 h ([1]; 5.5 MBq, Kidney uptake) of 2.13 ± 0.85 %ID/g, a tissue uptake at 4 h ([1]; 5.5 MBq, Kidney uptake) of 1.43 ± 0.68 %ID/g and a tissue uptake at 20 h ([1]; 5.5 MBq, Kidney uptake) of 0.98 ± 0.48 %ID/g. The tissue uptake at 0.5 h ([1]; 5.5 MBq, Liver uptake) was 2.86 ± 1.06 %ID/g, the tissue uptake at 1 h ([1]; 5.5 MBq, Liver uptake) was 2.68 ± 1.15 %ID/g and the tissue uptake at 4 h ([1]; 5.5 MBq, Liver uptake) was 2.15 ± 0.79 %ID/g. It also gave a tissue uptake at 20 h ([1]; 5.5 MBq, Liver uptake) of 1.67 ± 0.69 %ID/g.

In the case of `N=C(N)NCCC[C@@H]1NC(=O)[C@H](CCCCN)NC(=O)[C@@H](Cc2ccc(O)cc2)NC(=O)[C@H](CC(=O)O)NC(=O)CNC1=O` [c(RGDyK), cyclo(Arg-Gly-Asp-D-Tyr-Lys), reference compound], the “binding inhibition of ^125I-[Tyr4]BBN with GRPR” value (GRPR; PC-3 cells, FIG. 14B) is reported as “did not show significant binding inhibition”.
